In patent US7387807B2, “Topical composition comprising feverfew” (Johnson & Johnson Consumer France, SAS, Roc Division, priority 1999, dated 2008):

Columns and labels:
Type in all cases: in vivo
[1] = test system: Albino male CD-1 mice; assay: Phorbol ester (TPA) induced mouse ear edema; settings: 0.1% topical, 20 μL immediately after TPA; 5.5 hours
Experimental: The following experiments were carried out to test the effect of feverfew and substantially parthenolide-free feverfew in a phorbol ester PITA) induced edema assay. […] Albino male CD-1 mice, 7-9 weeks old, were used. A 0.005% (w/v) TPA solution was made in acetone. A 20 μL volume of this TPA solution was applied to the dorsal left ear of the mouse. Test compounds were applied immediately to the left ear (20 μL) after TPA in a 70% ethanol/propylene glycol vehicle. The right ear was not treated. The mice were sacrificed by CO2 inhalation (5.5 hours after TPA), the left and right ears were removed and a 7 mm biopsy was removed from each ear and weighed. The difference in biopsy weights between the right and left ear was calculated.

[2] = test system: Albino male CD-1 mice; assay: Oxazolone contact hypersensitivity, mouse ear; settings: 0.1% topical, 20 μL to ear 1 hour after challenge; ear weight at 24 hours
Experimental: The following experiments were carried out to test the effect of feverfew and substantially parthenolide-free feverfew in a contact […] assay. In this assay, the compositions of the invention were evaluated against hydrocortisone, a steroid known to inhibit contact hypersensitivity. Albino male CD-1 mice, 7-9 weeks old, were induce on the shaved abdomen with 50 μL of 3% oxazolone in acetone/corn oil Day 0). On Day 5, a 20 μL volume of 2% oxazolone in acetone was […] to the dorsal left ear of the mouse. […] The right ear was not treated. The mice were sacrificed by CO2 inhalation 24 hours after the oxazolone challenge, the left and right ears were removed and a 7 mm biopsy was taken from each ear and weighed. The difference in biopsy weights between the right and left ear was calculated. Antiinflammatory effects of compounds are evident as an inhibition of the increase in ear weight.

[3] = test system: human volunteers; assay: Prevention of trauma (stratum corneum stripping) induced erythema, human study; settings: applied twice daily for 2 days before stripping, total 2 hour period, compared to the vehicle
Experimental: Test product was applied to the ventral side of the forearm twice daily for 2 consecutive days. […] Chromameter measurements were made prior to stripping and at 0.5, 1, 1.5 and 2 hours posts tripping. The Colorimetric Erythema Index (CEI) was calculated for each time point. For the total 2 hour period, and compared to the vehicle, the following reductions in erythema were obtained;

[4] = test system: human volunteers; assay: Prevention of UVB induced erythema, human study; settings: 2 mg/cm^2 twice daily for 2 days before 2MED UVB
Experimental: Test product was applied to 5 different locations on the volar forearm twice daily for 2 consecutive days (2 mg/cm^2). The sites were exposed to 2MED UVB. Chromameter measurements were made prior to irradiation and at 18, 24, 42 and 48 hours post irradiation. The Colorimetric Erythema Index (CEI) was calculated for each time point. The following reductions in erythema were obtained: […]

[5] = test system: human volunteers; assay: Treatment of trauma (stratum corneum stripping) induced erythema, human study; settings: applied for 2 hours immediately after stripping, total 2 hour period, compared to the vehicle
Experimental: Test product was applied to the ventral side of the forearm for 2 hours, immediately after stripping. Chromameter measurements were made prior to stripping and at 0.5, 1, 1.5 and 2 hours post stripping. The Colorimetric Erythema Index (CEI) was calculated for each time point. For the total 2 hour period, and compared to the vehicle, the following reductions in erythema were obtained: […]

[6] = test system: human volunteers; assay: Treatment of UVB induced erythema, human study; settings: 2 mg/cm^2 immediately after 2MED UV and 5 and 8 hours later
Experimental: Ten healthy volunteers were irradiated with 2MED UV light on five distinct spots of the volar forearms. Test product was applied (2 mg/cm^2) on the irradiated sites immediately after irradiation, and 5 and 8 hours later. Erythema scores were measured before irradiation and 1, 4, 7 and 24 hours later. The following reductions in erythema were obtained: […]

[7] = test system: Albino male CD-1 mice; assay: Arachidonic acid induced ear edema; settings: 20 μl immediately after AA, 1 hour
Experimental: In this in vivo model, feverfew's ability to reduce arachidonic acid induced edema was compared to the known cycloxygenase/lipoxgenase inhibitor tepoxalin. Albino male CD-1 mice, 7-9 weeks old, were used. A 20% (w/v) arachidonic acid (AA) solution was made in acetone. A 20 μl volume of the AA was applied to the dorsal left ear of the mouse. Test compounds (20 μl) were applied immediately to the left ear after AA in a 70% ethanol/30% propylene glycol vehicle. The right ear was not treated. The mice were sacrificed by CO2 inhalation 1 hour after AA, the left and right ears were removed and a 7 mm biopsy was removed from each ear and weighed. The difference in biopsy weights between the right and left ear was calculated. Antiinflammatory effects of compounds are evident as an inhibition of the increase in ear weight.

## C[C@@H]1C[C@H]2[C@@H]3CCC4=CC(=O)C=C[C@]4(C)[C@@]3(F)[C@@H](O)C[C@]2(C)[C@@]1(O)C(=O)CO [Dexamethasone]
[1]
  TPA induced ear edema, inhibition of the increase in ear weight, Study 2: 97.2

## C[C@]12CCC(=O)C=C1CC[C@@H]1[C@@H]2[C@@H](O)C[C@@]2(C)[C@H]1CC[C@]2(O)C(=O)CO [Hydrocortisone]
[2]
  Oxazolone contact hypersensitivity % Inhibition, Study 1: 96.9%
  Oxazolone contact hypersensitivity % Inhibition, Study 2: 87.6%
  Oxazolone contact hypersensitivity % Inhibition, Study 3: 91.0%
[1]
  TPA induced ear edema, inhibition of the increase in ear weight, Study 1: 96.9
[3]; 0.1%
  Reduction of Erythema (%): 10%
[3]; 1%
  Reduction of Erythema (%): 19%
[4]; 0.1%
  Reduction of Erythema (%): 2.5%
[4]; 1%
  Reduction of Erythema (%): 5.7%
[5]; 0.1%
  Reduction of Erythema (%): −3%
[5]; 1%
  Reduction of Erythema (%): 14%
[6]; 0.1%
  Reduction of Erythema (%): 3.2%
[6]; 1%
  Reduction of Erythema (%): 17.7%

## COc1ccc(-n2nc(CCC(=O)N(C)O)cc2-c2ccc(Cl)cc2)cc1 [Tepoxalin]
[7]; 0.1% topical
  Arachidonic acid induced ear edema % Inhibition: 10.84%
[7]; 1.0% topical
  Arachidonic acid induced ear edema % Inhibition: 42.38%
[7]; 2.0% topical
  Arachidonic acid induced ear edema % Inhibition: 61.06%
